This is an account of results in patent US8569342B2, “Diastereomers of 4-aryloxy-3-hydroxypiperidines” (Brentwood Equities, Ltd., priority 2003, dated 2013).

Like-named read-outs stand apart in the source and are kept apart here.

The target of experiment [1] is NE uptake (Homo sapiens, UniProt P23975). Nature of the experiment: NE uptake binding assay. The note with it: for inhibition at 0.1 µM: 100 nM compound, read-out: % inhibition of control specific at 100 nM conc.
Experiment [2] deals with 5-HT2c (Homo sapiens, UniProt P28335). Nature of the experiment: 5-HT2c receptor binding assay. The note with it: for inhibition at 0.1 µM: 100 nM compound, read-out: % inhibition of control specific at 100 nM conc.
In experiment [3] the target is T1, human 5-HT1A receptor (Homo sapiens, UniProt P08908).
T1 construct: expressed in transfected cells; host or cells: CHO cells
T1 sequence (P08908 1-422): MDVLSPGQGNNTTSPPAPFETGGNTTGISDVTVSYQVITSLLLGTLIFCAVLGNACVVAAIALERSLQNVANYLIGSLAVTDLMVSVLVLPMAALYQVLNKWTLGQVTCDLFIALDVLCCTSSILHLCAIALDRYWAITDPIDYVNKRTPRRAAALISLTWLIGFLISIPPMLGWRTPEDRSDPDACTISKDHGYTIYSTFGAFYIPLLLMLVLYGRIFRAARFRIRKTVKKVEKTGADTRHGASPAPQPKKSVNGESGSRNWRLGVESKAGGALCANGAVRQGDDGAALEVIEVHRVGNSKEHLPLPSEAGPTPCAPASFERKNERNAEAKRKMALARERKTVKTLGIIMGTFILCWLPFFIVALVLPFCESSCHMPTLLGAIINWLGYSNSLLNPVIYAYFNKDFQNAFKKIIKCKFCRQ
Description: 5-HT1A receptor binding assay. The note with it: for inhibition at 0.1 µM: 100 nM compound, 0.5 nM [3H]-8-OH-DPAT, 60 minutes at 22° C., CHO cells, read-out: % inhibition of control specific at 100 nM conc. As for the experimental part: (§1) 5-HT receptor binding assays were performed according to the method well known in the art. See for example Mulerhorn et al. J. Biol. Chem. 269 (1994) 12954-12962, Bonhaus et al. (1995) et al. J. Biol. Chem. 269 (1994) 12954-12962 herein incorporated by reference in its entirety. See also U.S. Pat. Nos. 5,126,363; 5,688,807; 5,786,157; and 5,869,691 herein incorporated by reference in their entirety.
(§2) Briefly, CHO cells expressing human 5-HT receptor subtypes, or membranes prepared therefrom, were incubated with a specific radioactive ligand for 60 minutes at 22° C. (0.5 nM of [^3H]-8-OH-DPAT for 5-HT1A receptors, 1.2 nM of [^3H]-LSD for 5-HT2B receptors). Incubations were performed in the presence or absence of one of the following diastereomers: 10 μM 8-OH-DPAT; 100 nM (3S,4R)-4-(2,3-dimethylphenyl)-3-hydroxypiperidine; 100 nM (3R,4S)-4-(2,3-dimethylphenyl)-3-hydroxypiperidine; 100 nM (3R,4R)-4-(2,3-dimethylphenyl)-3-hydroxypiperidine; 100 nM (3S,4S)-4-(2,3-dimethylphenyl)-3-hydroxypiperidine. Following incubation the cells or membranes were washed recovered and the radioactivity content of the filter used to determine specific receptor binding and inhibition by the essential pure diastereomers.

Experiment [4] concerns the target 5-HT3 (Homo sapiens, UniProt P46098). Description: 5-HT3 receptor binding assay. The note with it: for inhibition at 0.1 µM: 100 nM compound, read-out: % inhibition of control specific at 100 nM conc.
The subject of experiment [5] is 5-HT4C. Nature of the experiment: 5-HT4C receptor binding assay. Details: species or system human. The note with it: for % inhibition of control specific at 100 nM conc.: 100 nM compound. As for the experimental part:
as §1, §2

The target in experiment [6] is human 5-HT2B receptor (Homo sapiens, UniProt P41595). Nature of the experiment: 5-HT2B receptor binding assay. The note with it: for inhibition at 0.1 µM: 100 nM compound, 1.2 nM [3H]-LSD, 60 minutes at 22° C., CHO cells, read-out: % inhibition of control specific at 100 nM conc. The method, then:
as §1, §2

Experiment [7] concerns the target T2, 5-HT7 (Homo sapiens, UniProt P34969).
T2 construct: expressed in transfected cells; host or cells: CHO cells
Description: 5-HT7 receptor binding assay. The note with it: for inhibition at 0.1 µM: 100 nM compound, read-out: % inhibition of control specific at 100 nM conc.

The subject of experiment [8] is 5-HT2 receptors. The note with it: Waldmeier, cited from earlier work.
For experiment [9], the system named is benzodiazepine receptors. The note with it: in vitro; Waldmeier; cited from earlier work.
In experiment [10] the test system is GABAA receptors. The note with it: in vitro; Waldmeier; cited from earlier work.
For experiment [11], the system named is 5-HT uptake processes in the periphery (blood platelets). The note with it: Delini-Stula et al.; cited from earlier work.
The test system of experiment [12] is 5-HT2 receptors. The note with it: in vivo; Waldmeier; cited from earlier work.
Experiment [13] concerns 5-HT reuptake in the brain. The note with it: Delini-Stula et al.; cited from earlier work.
Experiment [14] deals with muscarinic acetylcholine receptors. The note with it: in vitro; Waldmeier; cited from earlier work.
For experiment [15], the system named is alpha1-noradrenoceptors. The note with it: in vitro; Waldmeier; cited from earlier work.
Experiment [16] concerns 5-HT1 receptors. The note with it: Waldmeier, cited from earlier work.
Experiment [17] concerns alpha2-noradrenoceptors. The note with it: in vitro; Waldmeier; cited from earlier work.
The subject of experiment [18] is opiate receptors. The note with it: in vitro; Waldmeier; cited from earlier work.
For experiment [19], the system named is histamine H1 receptors. The note with it: in vitro; Waldmeier; cited from earlier work.
For experiment [20], the system named is beta-noradrenoceptors. The note with it: in vitro; Waldmeier; cited from earlier work.
The test system of experiment [21] is doparine receptors. The note with it: in vivo; Waldmeier; cited from earlier work.

Chain of 5-HT3 (P46098 24-478): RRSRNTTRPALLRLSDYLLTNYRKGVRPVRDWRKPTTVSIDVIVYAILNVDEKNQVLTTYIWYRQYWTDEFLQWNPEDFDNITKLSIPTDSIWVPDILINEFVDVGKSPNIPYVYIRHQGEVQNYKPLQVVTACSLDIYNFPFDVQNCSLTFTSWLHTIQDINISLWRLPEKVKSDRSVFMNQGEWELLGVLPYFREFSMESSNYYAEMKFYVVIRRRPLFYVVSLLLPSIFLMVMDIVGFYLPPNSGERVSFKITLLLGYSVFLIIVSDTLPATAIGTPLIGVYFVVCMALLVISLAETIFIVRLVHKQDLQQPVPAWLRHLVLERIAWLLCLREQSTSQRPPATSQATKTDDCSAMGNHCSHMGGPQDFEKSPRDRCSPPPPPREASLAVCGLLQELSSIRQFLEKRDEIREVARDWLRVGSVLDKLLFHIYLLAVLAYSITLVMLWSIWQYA
Chain of human 5-HT2B receptor (P41595 whole entry): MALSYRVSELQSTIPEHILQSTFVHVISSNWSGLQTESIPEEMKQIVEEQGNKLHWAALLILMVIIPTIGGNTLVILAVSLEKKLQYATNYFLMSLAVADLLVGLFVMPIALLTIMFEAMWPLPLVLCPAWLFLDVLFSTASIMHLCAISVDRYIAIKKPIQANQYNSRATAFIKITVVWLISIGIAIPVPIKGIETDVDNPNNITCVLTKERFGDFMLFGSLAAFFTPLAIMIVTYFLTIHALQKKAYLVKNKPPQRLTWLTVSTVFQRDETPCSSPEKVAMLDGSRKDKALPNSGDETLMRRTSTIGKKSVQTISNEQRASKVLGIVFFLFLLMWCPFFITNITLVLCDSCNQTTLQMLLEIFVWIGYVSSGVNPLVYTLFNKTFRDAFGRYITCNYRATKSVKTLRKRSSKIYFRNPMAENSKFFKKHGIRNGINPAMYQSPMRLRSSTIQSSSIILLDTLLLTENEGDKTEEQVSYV
Chain of NE uptake (P23975 whole entry): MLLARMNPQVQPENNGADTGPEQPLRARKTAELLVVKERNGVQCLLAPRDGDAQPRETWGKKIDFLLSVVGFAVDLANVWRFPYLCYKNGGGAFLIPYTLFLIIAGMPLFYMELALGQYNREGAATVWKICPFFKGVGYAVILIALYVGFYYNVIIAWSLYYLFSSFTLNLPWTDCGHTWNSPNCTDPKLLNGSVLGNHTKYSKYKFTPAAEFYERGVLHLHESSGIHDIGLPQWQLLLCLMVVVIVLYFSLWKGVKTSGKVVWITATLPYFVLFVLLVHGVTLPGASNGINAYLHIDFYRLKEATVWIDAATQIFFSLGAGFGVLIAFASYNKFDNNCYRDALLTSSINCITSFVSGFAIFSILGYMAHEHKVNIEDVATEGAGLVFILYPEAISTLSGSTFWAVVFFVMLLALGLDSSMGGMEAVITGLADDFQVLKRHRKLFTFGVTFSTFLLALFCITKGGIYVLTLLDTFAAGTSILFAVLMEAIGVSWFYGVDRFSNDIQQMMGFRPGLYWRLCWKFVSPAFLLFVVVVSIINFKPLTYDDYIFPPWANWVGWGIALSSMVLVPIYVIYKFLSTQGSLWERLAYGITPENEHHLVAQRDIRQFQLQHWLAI
T2 sequence (P34969 whole entry): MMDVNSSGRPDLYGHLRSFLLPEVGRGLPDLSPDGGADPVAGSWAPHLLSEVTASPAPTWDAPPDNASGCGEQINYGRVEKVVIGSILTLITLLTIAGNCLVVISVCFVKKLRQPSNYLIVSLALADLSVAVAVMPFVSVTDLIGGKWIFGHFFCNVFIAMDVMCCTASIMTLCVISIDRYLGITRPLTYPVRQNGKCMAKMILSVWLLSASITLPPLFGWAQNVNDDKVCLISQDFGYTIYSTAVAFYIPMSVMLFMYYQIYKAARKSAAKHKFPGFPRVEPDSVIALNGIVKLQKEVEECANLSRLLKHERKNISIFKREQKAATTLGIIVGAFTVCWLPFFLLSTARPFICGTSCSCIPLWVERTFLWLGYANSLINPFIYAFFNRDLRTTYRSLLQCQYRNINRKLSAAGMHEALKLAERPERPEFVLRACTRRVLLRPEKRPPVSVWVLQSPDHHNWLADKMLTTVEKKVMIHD
Chain of 5-HT2c (P28335 33-458): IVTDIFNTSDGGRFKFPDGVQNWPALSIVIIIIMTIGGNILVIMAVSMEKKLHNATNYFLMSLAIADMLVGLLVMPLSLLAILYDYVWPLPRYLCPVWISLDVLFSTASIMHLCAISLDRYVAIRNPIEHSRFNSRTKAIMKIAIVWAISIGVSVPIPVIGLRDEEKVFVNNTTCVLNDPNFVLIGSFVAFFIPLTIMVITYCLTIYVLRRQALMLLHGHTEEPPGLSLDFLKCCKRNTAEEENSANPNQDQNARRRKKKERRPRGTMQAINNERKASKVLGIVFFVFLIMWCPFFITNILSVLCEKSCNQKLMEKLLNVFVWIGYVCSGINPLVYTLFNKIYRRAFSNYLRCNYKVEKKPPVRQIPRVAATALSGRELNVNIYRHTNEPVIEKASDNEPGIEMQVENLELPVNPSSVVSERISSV

As a reminder, the inhibition is the change of the read-out against control, counted positive when it falls. Regarding `Cc1cccc(O[C@@H]2CCNC[C@H]2O)c1C`, the inhibition at 0.1 µM in [1] is -9%; in experiment [2], -11%; in [3], 16%; in [4], 4%; in experiment [6], 6%; in experiment [7] it was 16%. Besides, the “inhibition of binding to 5-HT1A receptors (in words)” value in experiment [3] is recorded as “inhibits binding”. Besides, the “% inhibition of control specific at 100 nM conc.” value (“% inhibition of control specific” for short) in experiment [5] came to 0%. Further, the “inhibition of binding to 5-HT7 receptors (in words)” value in experiment [7] is “inhibits binding”.

For the molecule `Cc1cccc(O[C@H]2CCNC[C@H]2O)c1C.Cc1cccc(O[C@H]2CCNC[C@H]2O)c1C.O=S(=O)(O)O` (relative stereo) [ifoxetine, (+/−)-bis-[cis-3-hydroxy-4-(2,3-dimethyl-phenoxy)]-piperidine sulfate], the “activity at 5-HT2 receptors” value in experiment [8] (10 μM of the racemate) was “minimal activity”. The “interaction with 5-HT2 receptors” value in experiment [8] (in vitro) and in [12] was “weak or no interactions” in each case. For the same molecule, the “interaction with benzodiazepine receptors” value in [9] was “weak or no interactions”. Besides, the “interaction with GABAA receptors” value in [10] was “weak or no interactions”. The “effect on 5-HT uptake processes in the periphery (blood platelets)” value in experiment [11] is listed as “without affecting”. Moreover, the “block of 5-HT reuptake in the brain” value in [13] is “specifically and selectively blocks”. In experiment [14], the “interaction with muscarinic acetylcholine receptors” value is given as “weak or no interactions”. Also, the “interaction with alpha1-noradrenoceptors” value in experiment [15] is listed as “weak or no interactions”. Besides, in [16] (10 μM of the racemate), the “activity at 5-HT1 receptors” value is “minimal activity”. For the same molecule, in [16] (in vitro), the “interaction with 5-HT1 receptors” value is on record as “weak or no interactions”. Also, the “interaction with alpha2-noradrenoceptors” value in [17] was “weak or no interactions”. Further, the “interaction with opiate receptors” value in [18] is “weak or no interactions”. Besides, the “interaction with histamine H1 receptors” value in experiment [19] is given as “weak or no interactions”. In experiment [20], the interaction with beta-noradrenoceptors entry is on record as “weak or no interactions”. The “interaction with doparine receptors” value in experiment [21] is “weak or no interactions”.

As for `Cc1cccc(O[C@H]2CCNC[C@@H]2O)c1C`, the “inhibition of binding to Ne (Norepinephrine) uptake receptors (in words)” value in experiment [1] was “inhibits binding”. For the same molecule, the inhibition at 0.1 µM was 4% in experiment [1]; 7% in [2]; -8% in experiment [3]; 5% in [4]; 6% in experiment [6]; 22% in experiment [7]. The “inhibition of binding to 5-HT2c receptors (in words)” value in [2] is “inhibits binding”. Also, in experiment [5], the “% inhibition of control specific” value turned out to be 5%. The “inhibition of binding to 5-HT7 receptors (in words)” value in experiment [7] is on record as “inhibits binding”.

Take `Cc1cccc(O[C@@H]2CCNC[C@@H]2O)c1C`: the “inhibition of binding to Ne (Norepinephrine) uptake receptors (in words)” value in [1] is recorded as “inhibits binding”. Also, the inhibition at 0.1 µM in experiment [1] is 8%; in experiment [2], -17%; in experiment [3], 9%; in experiment [4] it was 11%; in [6], 6%; in experiment [7] it was 6%. Besides, in [4], the “inhibition of binding to 5-HT3 receptors (in words)” value was “inhibits binding”. In addition, in [5], the “inhibition of binding to 5-HT4c receptors (in words)” value is recorded as “inhibits binding”. The “% inhibition of control specific” value in experiment [5] is recorded as 15%.

In the case of `Cc1cccc(O[C@H]2CCNC[C@H]2O)c1C`, the inhibition at 0.1 µM in experiment [1] was found to be 3%; in experiment [2] it was 4%; in experiment [3], 39%; in experiment [4], 6%; in experiment [6], 48%; in [7] it was 1%. In addition, in [2], the “inhibition of binding to 5-HT2c receptors (in words)” value was “effective inhibitor of binding”. In addition, in experiment [3], the “inhibition of binding to 5-HT1A receptors (in words)” value is listed as “effective inhibitor of binding”. The “% inhibition of control specific” value in [5] is on record as 8%. Further, in experiment [6], the “inhibition of binding to 5-HT2B receptors (in words)” value was “effective inhibitor of binding”.
